Experimental data from patent publication US20240299336A1, “SHELF-STABLE FORMULATIONS OF BENZOYL PEROXIDE AND METHODS OF PRODUCING SAME” (BLUE HILL TECHNOLOGIES LLC, priority 2022, published 2024).

Tests used:
Assay type in all cases: physicochemical
[1] = Effect of solvents on benzene levels in 10% w/v benzoyl peroxide formulations; settings: 10% benzoyl peroxide, 37° C. for 10 days, compared to formulations containing glycerol or NMP
Procedure: (§1) The method USP <467> Residual Solvents Procedure A was modified from flame ionization detection (FID) to mass spectrometry (MS) detection for benzene in benzoyl peroxide products. The gas chromatography (GC) methods were also modified to allow shorter run time and the method was validated for addition of up to 500 mg benzoyl peroxide product or 200 ml glycerol. Identification of benzene was based on the retention time matching to certified reference standards and mass spectral m/z matching to benzene.
10% w/v benzoyl peroxide formulations were prepared. Various solvents were added to the formulations (water, dimethylsulfoxide (DMSO), glycerol. N-methyl-2-pyrrolidone (NMP)) to test whether these solvents could prevent or reduce formation of benzene under certain conditions. The various formulations were incubated at either 37° C., for up to two weeks or at 50° C., for up to two weeks. Benzene levels in each formulation were tested at various time points according to the protocols described in Example 1.

[2] = Effect of antioxidants added to FDA-approved benzoyl peroxide drug products on benzene levels; settings: antioxidant added to drug product, 50° C. for 2 days
Procedure: as §1

[3] = Effect of antioxidants on benzene levels in 10% w/v benzoyl peroxide formulations; settings: 10% w/v benzoyl peroxide plus antioxidant
Procedure: For benzoyl peroxide stability studies in glycerol, benzoyl peroxide was prepared in a stock suspension of 20% w/v in glycerol and mixed 1:1 with 20% w/v suspensions or v/v solutions of antioxidants in glycerol. For pH experiments, the same stock suspension of benzoyl peroxide was mixed 1:1 with a 50% glycerol solution with 200 mM buffering agent (Citrate buffer pH 3.0, Tris Buffer pH 7.0, or Tris Buffer pH 9.0) for final 75% glycerol solution. The final volume of all reactions was 100 μL in GC headspace vials with 10% solution benzoyl peroxide (10 mg) and 10% antioxidant or 100 mM buffering agent. Vials were immediately crimp sealed for incubation. For analysis, 4.9 mL of DMSO was added to make up the final volume to approximate 5 mL, crimp sealed, and gently vortexed to mix.
Benzene standard was diluted in DMSO for an 11-point calibration ranging from 10 ng/vial to 100 μg/vial. The coefficient of determination R^2 were greater than 0.999. Five (5) mL of DMSO was used for negative control samples.
as §1, with “benzene. Lower limit of detection (LLOD) was 10 ng (equivalent to 0.02 ppm in hand benzoyl peroxide products) and LLOQ was 25 μg. The measurement uncertainty was determined to be 20%.” for “benzene.”
10% w/v benzoyl peroxide formulations were prepared. Various antioxidants were added to the formulations (10% w/v butylated hydroxytoluene (BHT), 10% w/v vitamin E acetate, or 5% w/v tert-butyl hydroquinone (TBHQ)+5% w/v BHT) to test whether these antioxidants could prevent or reduce formation of benzene under certain conditions. The various formulations were incubated at either 37° C., for up to two weeks or at 50° C., for up to two weeks. Benzene levels in each formulation were tested at various time points according to the protocols described in Example 1.

[4] = Benzene levels formed by crystalline benzoyl peroxide incubated at 50° C.; settings: 50° C. for up to 12 days
Procedure: as §1

Row | SMILES | levels of benzene formed in the formulations [1] | levels of benzene formed in two FDA-approved drug products with antioxidant [2] | levels of benzene formed in the formulations ([3]; 37° C. for up to two weeks) | levels of benzene formed in the formulations ([3]; 50° C. for up to two weeks) | further results
1 | C[S+](C)[O-] [DMSO, dimethylsulfoxide] | most dramatic reduction in, or complete prevention of, benzene levels | – | – | – | –
2 | CC(C)(C)c1cc(O)ccc1O [TBHQ, tert-butyl hydroquinone] | – | reduce the degradation of benzoyl peroxide to benzene | – | – | –
3 | CC(=O)Oc1c(C)c(C)c2c(c1C)CCC(C)(CCC[C@H](C)CCC[C@H](C)CCCC(C)C)O2 (stereo partly drawn) [vitamin E acetate] | – | – | reduced the levels of benzene | reduced the levels of benzene | –
4 | O=C(OOC(=O)c1ccccc1)c1ccccc1 [crystalline benzoyl peroxide, benzoyl peroxide] | – | – | – | – | levels of benzene formed [4]: may be protected from forming benzene levels
5 | O [water] | most dramatic reduction in, or complete prevention of, benzene levels | – | – | – | –
6 | Cc1cc(C(C)(C)C)c(O)c(C(C)(C)C)c1 [BHT, butylated hydroxytoluene] | – | reduce the degradation of benzoyl peroxide to benzene | most dramatic reduction | most dramatic reduction | –
